One test concerns the target KRAS G12D (Homo sapiens (Human), UniProt P01116, G12D). As to the kind of experiment: Inhibitory activity on KRAS G12D nucleotide (GDP-GTP) exchange reaction in vitro (SOS1-dependent, BODIPY FL GDP). It counts as biochemical. The settings on record: BODIPY FL GDP-bound KRAS G12D, compound 25° C. 1 hour, then SOS1 and GMPPNP 30 minutes. The source says:
Test Example 1: Evaluation of inhibitory activity of compounds on KRAS G12D nucleotide (GDP-GTP) exchange reaction in vitro
Recombinant KRAS G12D (conjugated N-terminus His6-tag, TEV protease cleavage site and KRAS G12D residues 1-169 (SEQ ID NO: 1), prepared by the method described as below) and cleaved recombinant SOS1 (residues 564-1049(SEQ ID NO: 2), prepared by the method as below) proteins were expressed in E. coli and purified by affinity chromatography.
To prepare the recombinant KRAS G12D, the codon-optimized DNA sequence for the recombinant KRAS G12D (conjugated N-terminus His6-tag, TEV protease cleavage site and KRAS G12D residues 1-169 (SEQ ID NO: 3))was synthesized by GeneArt Technology (Life Technologies, Carlsbad, CA, US). The construct was subcloned into the expression vector pET28a and transformed into Escherichia coli BL21 (DE3) strains (Novagen, Madison, WI, US).
The transformed strain was cultivated in 2 L Luria Broth medium with 25 μg/mL kanamycin at a temperature of 37° C. to a density of 0.6 (OD600), then induced for expression with […] IPTG and further cultivated for 4 h. The cell pellet was resuspended in ice-cold lysis buffer containing 50 mM Tris-HCl (pH 7.5), 200 mM NaCl, and 100 μM TCEP (tris(2-carboxyethyl)phosphine).
After sonication, the disrupted debris was removed by centrifugation. The supernatant was applied on to Ni-NTA affinity gels, and the recombinant human KRAS (G12D) eluted fraction was collected. The buffer of the collected fraction was exchanged to the buffer containing 50 mM Tris-HCl (pH 7.5), 200 mM NaCl, 10% Glycerol, and 5 mM DTT by PD-10 column (GE-Healthcare, Chicago, IL, US).
To prepare the cleaved recombinant SOS1, the codon optimized DNA sequences for the recombinant SOS1 (residues 564-1049 with a conjugated N-terminus His6-tag and TEV protease cleavage site (SEQ ID NO: 4)) was synthesized by GeneArt Technology (Life Technologies). The construct was subcloned into the expression vector pET28a and transformed into Escherichia coli BL21 (DE3) strains (Novagen, Madison, WI, USA).
The transformed strain was cultivated in 2 L Terrific Broth medium with 25 μg/mL kanamycin at a temperature of 37° C. to a density of 0.8 (OD600), then shifted to a temperature of 16° C., induced for expression with […] IPTG, and further cultivated for 16 h. The cell pellet was resuspended in ice-cold lysis buffer containing 50 mM Tris-HCl (pH 7.5), 200 mM NaCl, and 100 μM TCEP.
After sonication, the disrupted debris was removed by centrifugation. The supernatant was applied on to Ni-NTA affinity gels, and the recombinant human SOS1 eluted fraction was collected. Then, His6-tagged TEV protease was added to the collected fraction, dialyzed with the ice-cold lysis buffer for 16 h at a temperature of 4° C., and applied on to Ni-NTA affinity gels. The flow-through fraction containing the tag-cleavaged recombinant human SOS1 was collected. The buffer of the collected fraction was exchanged to the buffer containing 50 mM Tris-HCl (pH 7.5), 200 mM NaCl, 10% Glycerol, and 5 mM DTT by PD-10 column (GE-Healthcare).
To prepare BODIPY FL (fluorescent dye) GDP-bound KRAS G12D protein, 50 μM KRAS G12D protein was incubated with 0.5 mM BODIPY FL GDP in a loading buffer (20 mM Tris-HCl (pH 7.5), 50 mM NaCl, 1 mM DTT and 2.5 mM EDTA) for 1 hour on ice. After the incubation, MgCl2 was added to a final concentration of 10 mM, followed by incubation at room temperature for 30 minutes.
The mixture was allowed to pass through a NAP-5 column to remove free nucleotides and purified BODIPY FL GDP-bound KRAS G12D protein was used for compound evaluation.
For the measurement of the inhibitory activity of compounds on GDP-GTP exchange rate of recombinant KRAS G12D, BODIPY FL GDP-bound KRAS G12D protein was incubated with various concentrations of compound in a reaction buffer (20 mM Tris-HCl (pH 7.5), 100 mM NaCl, 1 mM MgCl2, 2 mM DTT, 0.1% Tween 20) at 25° C. for 1 hour. […]

The subject of test [1] is KRAS-G12D mutant cell line (A-427). As to the kind of experiment: Growth inhibition activity on KRAS-G12D mutant cell line (A-427), CellTiter-Glo 3D. Type of test: cell-based. The settings on record: Homo sapiens, 72 h, A-427 cells, 3-day culture with compound, read-out: A427 CTX IC50. How it is done:
Test Example 2: A measurement test of growth inhibition activity on KRAS-G12D mutant cell line (A-427) (in vitro) A-427 cells (ATCC, Cat #: HTB-53), which are a KRAS-G12D mutant human lung cancer cell line, were suspended in a 10% fetal bovine serum-containing E-MEM medium (manufactured by Fujifilm Wako Pure Chemical Corporation). The cell suspension was seeded into each well of a 384-well U bottom microplate and cultured in an incubator containing 5% CO2 gas at 37° C. for 1 day.
The compound of the present invention was dissolved in DMSO, and the test compound was diluted with DMSO to give a concentration 500 times the final concentration. The solution of the test compound in DMSO was diluted with the medium used for suspending cells and added to each well of the cell-culture plate to give a DMSO final concentration of 0.2%, followed by culture in an incubator containing 5% CO2 gas at 37° C. for another 3 days. The cell count after a 3-day culture in the presence of the compound was measured using CellTiter-Glo 3D Reagent (manufactured by Promega Corporation).
All wells were added with CellTiter-Glo 3D Reagent and mixed for 10 minutes. 30 minutes after mixing, luminescence was measured by a plate reader. The growth inhibition rate was calculated from the following equation, and the concentration of the test compound at which 50% inhibition was achieved (IC50 (μM)) was determined.
Growth Inhibition Rate(%)=(C−T)/(C)×100
T: the emission intensity in a well into which a test compound was added.
C: the emission intensity in a well into which a test compound was not added.
A general note: Cellular ATP, detected with luciferase, serves as a proxy for viable cell number.

A word on the IC50: it is the point on the concentration scale where inhibition reaches its midpoint.

Structures are written as SMILES.

Chain of KRAS G12D (P01116 other isoform, or with tags, fused parts or gaps G12D (already in the parent)): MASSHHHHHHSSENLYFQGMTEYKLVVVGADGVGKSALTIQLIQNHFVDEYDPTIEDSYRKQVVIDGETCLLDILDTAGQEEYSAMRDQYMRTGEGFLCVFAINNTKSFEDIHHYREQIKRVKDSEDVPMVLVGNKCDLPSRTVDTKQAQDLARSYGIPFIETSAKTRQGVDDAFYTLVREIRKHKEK

As for `CN(C)[C@@H]1CC[C@@H]1COc1nc(N2CC3CCC(C2)N3)c2ccc(-c3cc(O)cc4ccccc34)c(F)c2n1` (relative stereo) [Example 17, 4-(4-(3,8-diazabicyclo[3.2.1]octan-3-yl)-2-((cis-2-(dimethylamino)cyclobutyl)methoxy)-8-fluoroquinazolin-7-yl)naphthalen-2-ol], the IC50 on KRAS G12D amounted to 14.6 nM; in test [1], 1290 nM.

Regarding `CN(C)CC1(COc2nc3c(c(N4CC5CCC(C4)N5)n2)CCN(c2cc(O)cc4cccc(Br)c24)C3)CC1` [Example 1, 4-(4-(3,8-diazabicyclo[3.2.1]octan-3-yl)-2-((1-((dimethylamino)methyl)cyclopropyl)methoxy)-5,8-dihydropyrido[3,4-d]pyrimidin-7(6H)-yl)-5-bromonaphthalen-2-ol], the IC50 against KRAS G12D worked out at 0.8 nM; in test [1], 1170 nM.

For the molecule `Oc1cc(N2CCc3c(nc(OCC4(CN5CC[C@@H](F)C5)CC4)nc3N3CC4CCC(C3)N4)C2)c2c(Br)cccc2c1` [Example 2, 4-(4-(3,8-diazabicyclo[3.2.1]octan-3-yl)-2-((1-(((R)-3-fluoropyrrolidin-1-yl)methyl)cyclopropyl)methoxy)-5,8-dihydropyrido[3,4-d]pyrimidin-7(6H)-yl)-5-bromonaphthalen-2-ol], the IC50 on KRAS G12D amounted to 1.5 nM; in test [1] it was 540 nM.

Take `Oc1cc(N2CCc3c(nc(OCC4(CN5CCOCC5)CC4)nc3N3CC4CCC(C3)N4)C2)c2c(Br)cccc2c1` [Example 3, 4-(4-(3,8-diazabicyclo[3.2.1]octan-3-yl)-2-((1-(morpholinomethyl)cyclopropyl)methoxy)-5,8-dihydropyrido[3,4-d]pyrimidin-7 (6H)-yl) -5-bromonaphthalen-2-ol]: in test [1], the IC50 is 590 nM.

For the molecule `Cc1cccc2cc(O)cc(N3CCc4c(nc(OCC5(CN(C)C)CC5)nc4N4CC5CCC(C4)N5)C3)c12` [Example 4, 4-(4-(3,8-diazabicyclo[3.2.1]octan-3-yl)-2-((1-((dimethylamino)methyl)cyclopropyl)methoxy)-5,8-dihydropyrido[3,4-d]pyrimidin-7(6H)-yl)-5-methylnaphthalen-2-ol], the figures for the IC50 (against KRAS G12D; in test [1]) were 1.5 nM and 1170 nM, respectively.

As for `Cc1cccc2cc(O)cc(N3CCc4c(nc(OCC5(CN6CC[C@@H](F)C6)CC5)nc4N4CC5CCC(C4)N5)C3)c12` [Example 5, 4-(4-(3,8-diazabicyclo[3.2.1]octan-3-yl)-2-((1-(((R)-3-fluoropyrrolidin-1-yl)methyl)cyclopropyl)methoxy)-5,8-dihydropyrido[3,4-d]pyrimidin-7(6H)-yl)-5-methylnaphthalen-2-ol], the IC50 on KRAS G12D came to 6.2 nM; in test [1] it was 1170 nM.

`Cc1cccc2cc(O)cc(N3CCc4c(nc(OCC5(CN6CCOCC6)CC5)nc4N4CC5CCC(C4)N5)C3)c12` [Example 6, 4-(4-(3,8-diazabicyclo[3.2.1]octan-3-yl)-2-((1-(morpholinomethyl)cyclopropyl)methoxy)-5,8-dihydropyrido[3,4-d]pyrimidin-7(6H)-yl)-5-methylnaphthalen-2-ol]: the results for the IC50 (on KRAS G12D; in test [1]) were 3.2 nM and 550 nM, respectively.

Regarding `CN(C)CC1(COc2nc3c(c(N4CC5CCC(C4)N5)n2)CCN(c2cc(O)cc4cccc(I)c24)C3)CC1` [Example 7, 4-(4-(3,8-diazabicyclo[3.2.1]octan-3-yl)-2-((1-((dimethylamino)methyl)cyclopropyl)methoxy)-5,8-dihydropyrido[3,4-d]pyrimidin-7(6H)-yl)-5-iodonaphthalen-2-ol], the figures for the IC50 (against KRAS G12D; in test [1]) were 0.7 nM and 580 nM, respectively.

Regarding `Oc1cc(N2CCc3c(nc(OCC4(CN5CC[C@@H](F)C5)CC4)nc3N3CC4CCC(C3)N4)C2)c2c(I)cccc2c1` [Example 8, 4-(4-(3,8-diazabicyclo[3.2.1]octan-3-yl)-2-((1-(((R)-3-fluoropyrrolidin-1-yl)methyl)cyclopropyl)methoxy)-5,8-dihydropyrido[3,4-d]pyrimidin-7(6H)-yl)-5-iodonaphthalen-2-ol], the values for the IC50 (against KRAS G12D; in test [1]) were 0.9 nM and 470 nM, respectively.

For the molecule `Oc1cc(N2CCc3c(nc(OCC4(CN5CCOCC5)CC4)nc3N3CC4CCC(C3)N4)C2)c2c(I)cccc2c1` [Example 9, 4-(4-(3,8-diazabicyclo[3.2.1]octan-3-yl)-2-((1-(morpholinomethyl)cyclopropyl)methoxy)-5,8-dihydropyrido[3,4-d]pyrimidin-7(6H)-yl)-5-iodonaphthalen-2-ol], the IC50 against KRAS G12D was found to be 0.7 nM; in test [1], 350 nM.

Consider `C#Cc1cccc2cc(O)cc(C(=O)N3Cc4nc(OCC5(CN6CCOCC6)CC5)nc(N5CC6CCC(C5)N6)c4C3)c12` [Example 10, (4-(3,8-diazabicyclo[3.2.1]octan-3-yl)-2-((1-(morpholinomethyl)cyclopropyl)methoxy)-5,7-dihydro-6H-pyrrolo[3,4-d]pyrimidin-6-yl) (8-ethynyl-3-hydroxynaphthalen-1-yl)methanone], for which the figures for the IC50 (against KRAS G12D; in test [1]) were 1.5 nM and 6620 nM, respectively.

On KRAS G12D, `Ic1cccc2cccc(N3CCc4c(nc(OCC5(CN6CCOCC6)CC5)nc4N4CC5CCC(C4)N5)C3)c12` [Example 25, 4-((1-(((4-(3,8-diazabicyclo[3.2.1]octan-3-yl)-7-(8-iodonaphthalen-1-yl)-5,6,7,8-tetrahydropyrido[3,4-d]pyrimidin-2-yl)oxy)methyl)cyclopropyl)methyl)morpholine] displayed an IC50 of 39.8 nM.

Molecule `CN1CCC[C@@H]1COc1nc2c(c(N3CC4CCC(C3)N4)n1)CCN(c1cc(O)cc3cccc(Br)c13)C2` [Example 26, 4-(4-(3,8-diazabicyclo[3.2.1]octan-3-yl)-2-(((R)-1-methylpyrrolidin-2-yl)methoxy)-5,8-dihydropyrido[3,4-d]pyrimidin-7(6H)-yl)-5-bromonaphthalen-2-ol] yielded an IC50 at KRAS G12D of 19.9 nM.

The values above are taken from patent US20230348495A1, “A COMPOUND HAVING INHIBITORY ACTIVITY AGAINST KRAS G12D MUTATION” (TAIHO PHARMACEUTICAL CO., LTD., priority 2019, published 2023).
